{
  "source": "patent US20210069213A1",
  "about": "“COMPOSITION AND METHOD OF TREATMENT FOR DRY A.M.D. (AGE RELATED MACULAR DEGENERATION)” (EYE CO PTY LTD, priority 2018, published 2021)",
  "key": {"[1]": {"tested_on": "Sprague-Dawley rats exposed to bright continuous light", "test": "Light damage (photo-oxidative damage) model of dry AMD, corticosteroid treatment vs vehicle", "type": "in vivo", "details": "after photo-oxidative damage; FA compared with TA; listed as FA", "description": "All experiments conducted were in accordance with the ARVO Statement for the Use of Animals in Ophthalmic and Vision Research. Albino Sprague-Dawley (SD) rats aged from […] were exposed to bright continuous light (BCL) at 1000 lux. The rats were born and reared in dim cyclic light conditions (12 h light:12 h dark) with an ambient light level of approximately 5 lux. Exposure to BCL was conducted on animals aged between post-natal days (P) 90-150. Prior to BCL exposure, rats were dark adapted for a minimum of 15 h then transferred to individual cages designed to allow light to enter unimpeded. There were no areas of shadow in the cages; pupillary dilation was not performed. BCL exposure commenced consistently at 9:00 am, and was achieved using a cold-white fluorescent light source positioned above the cages (18 W, Cool White; TFC), at an intensity of approximately 1000 lux at the cage floor. BCL exposure was maintained over a period of 24 h, after which time the animals were immediately returned to dim cyclic conditions for the post-exposure period.\nAge-matched, dim-reared animals served as control samples.\nAnimals were euthanatized by overdose of barbiturate administered by an intraperitoneal injection (60 mg/kg bodyweight; Valabarb; Virbac Animal Health, Regents Park, NSW, Australia).\nEyes were oriented and embedded in O.C.T. compound (Tissue-Tek, Sakura, Japan) then snap frozen in liquid nitrogen and cryosectioned at […] Retinas for RNA extraction were immediately deposited in RNA stabilizer (RNAlater; Ambion, Austin, Tex.), prechilled on ice, and stored according to the manufacturer's instructions. RNA was then extracted from each sample. The samples were incubated at 4° C. overnight to allow adequate penetration of the preservative, and then stored at […] until required. The samples were processed in batches encompassing the entire time course, to ensure comparability. […]\nTUNEL labeling was used to quantify photoreceptor apoptosis in cryosections, during and after BCL, with a protocol published previously. […]"}, "[2]": {"tested_on": "light-damage model of dry AMD", "test": "Light-damage model of dry AMD in mice", "type": "in vivo"}, "[3]": {"tested_on": "New Zealand albino rabbits", "test": "Intravitreal toxicology of fludrocortisone acetate in rabbit eyes", "type": "in vivo", "details": "based on vitreous volume, man 4 mL vs rabbit 1.5 mL", "source_text": "The eyes were enucleated and examined with light microscopy.\nInvestigative Ophthalmology & Visual Science, 2006. 47(13): p. 4281-4281 ]. […] Their eyes were enucleated and examined with light microscopy."}, "[4]": {"tested_on": "subject with bi-lateral GA", "test": "Phase Ib study of intravitreal FA in patients with geographic atrophy", "type": "in vivo, human", "details": "single subject, 1 mg intravitreal", "description": "A. Phase Ib, Study of Safety and Tolerability of Intravitreal Fludrocortisone Acetate (FA) and Triamcinolone (TA) in Patients with Geographic Atrophy (GA)\nThe identical protocol will be followed with TA.\nPart 1 involves a single participant to assess safety and tolerability of 1 mg/0.1 mL FA. This participant will be followed for up to 28 days and reviewed by a safety review committee prior to the recruitment of a further 2 participants treated with 1 mg/0.1 mL FA totalling in 3 participants in the first cohort.\nVisit 2 (Baseline)—All subjects: Unless specified, all ophthalmic procedures (including imaging) are to be performed on the Study eye only. 1. Verify that all inclusion/exclusion criteria are met, including the determination of eligibility by the PI. 2. Obtain information on any changes in medical health and/or the use of concomitant medications. 3. Collect vital signs pre- and post-dose. Vital signs will be measured within 1 hour prior to dosing for the pre-dose time point. Post-dose vital signs readings will be performed within 30 minutes after dosing. 4. Perform BCVA. 5. Perform LL-BCVA. 6. Perform a complete ophthalmic exam including slit-lamp exam of the cornea, iris, anterior chamber, lens (LOCS III if any opacity on the lens noted) and aqueous reaction (cells and flare), dilated fundus exam of the vitreous and retina and IOP measurement. 7. Perform the IVT injection of fludrocortisone acetate. 8. Monitor the study eye within 15 minutes' post injection. 9. Monitor for adverse events.\nFIGS. 2 to 6 show the results of injection of fludrocortisone into one subject according to the Phase lb study."}, "[5]": {"tested_on": "monkey choroidal endothelial cells (CECs)", "details": "PMA-stimulated CECs; FA compared with TA; cited from earlier work"}, "[6]": {"tested_on": "New Zealand albino rabbits", "details": "cited from earlier work; for ERG change in the other groups: intravitreal 2 mg, 1 mg, 400 μg/0.1 ml; for ERG change in the other groups / ERG change: two weeks after injection; for intravitreal (vitreous) haemorrhage: intravitreal 4 mg/0.1 mL; for ERG change: intravitreal 4 mg/0.1 ml"}, "[7]": {"details": "FA delivered in Kenalog vehicle, 7 days later"}},
  "note": "Entries after “also recorded” stand apart in the source; their conditions may differ. Read-outs that look alike come from different tables or passages of the source.",
  "data": [
    {"smiles": "CC(=O)OCC(=O)[C@@]1(O)CC[C@H]2[C@@H]3CCC4=CC(=O)CC[C@]4(C)[C@@]3(F)[C@@H](O)C[C@@]21C", "note": "[Fludrocortisone acetate, 9-α-Fiuoro-11 β. 17 α, 21-trihydroxy-4-pregnene-3, 20 dione acetate]", "values": [
      {"measurement": "prevention of macrophage recruitment (IBA1)", "setting": "[1]", "result": "more effective than TA; also recorded: superior"},
      {"measurement": "prevention of photoreceptor death / cell death (TUNEL)", "setting": "[1]", "result": "more effective than TA; also recorded: superior"},
      {"measurement": "retinal function (ERG, a- and b-wave amplitude)", "setting": "[1]", "result": "preserves retinal function; also recorded: superior"},
      {"measurement": "cell death", "setting": "[2]; [7]", "result": "significantly less cell death"},
      {"measurement": "macrophages that carry the IBA1 marker", "setting": "[2]; [7]", "result": "significantly fewer macrophages"},
      {"measurement": "Electroretinogram A-wave (Photoreceptor function) and B-wave (inner retinal function)", "setting": "[2]; FA-treated animals", "result": "significantly more robust"},
      {"measurement": "outer nuclear layer thickness (histology)", "setting": "[2]; FA-treated animals", "result": "much thicker outer nuclear layer"},
      {"measurement": "human equivalent dose", "setting": "[3]", "result": 67, "unit": "mg/eye every 4 weeks"},
      {"measurement": "external eye exam", "setting": "[4]", "result": "all normal"},
      {"measurement": "slit lamp biomicroscopy", "setting": "[4]", "result": "all normal, apart from a previous scar on the anterior chamber"},
      {"measurement": "vitreous haze grading", "setting": "[4]", "result": "absent"},
      {"measurement": "toxicity", "setting": "[4]; left eye, day 28", "result": "no evidence of toxicity"},
      {"measurement": "visual acuity (VA)", "setting": "[4]; left eye, day 28", "result": "improved visual acuity"},
      {"measurement": "restoring quiescent morphology", "setting": "[5]", "result": "superior to TA"},
      {"measurement": "histological examination of retinal sections (light microscopy)", "setting": "[6]; 400 μg to 4 mg per eye", "result": "no evidence of toxicity or vacuolization except for one eye in the 4mg group"},
      {"measurement": "time by which all aggregates disappeared from the vitreous", "setting": "[6]; 2-mg group", "result": "22 ± 8", "unit": "days"},
      {"measurement": "time by which all aggregates disappeared from the vitreous", "setting": "[6]; 4-mg group", "result": "33 ± 7", "unit": "days"},
      {"measurement": "IOP", "setting": "[6]; all groups", "result": "normal"},
      {"measurement": "ERG change in the other groups", "setting": "[6]", "result": "normal ERG"},
      {"measurement": "ERG change in the other groups", "setting": "[6]; listed as FA", "result": "no other problems of reductions in ERG"},
      {"measurement": "intravitreal (vitreous) haemorrhage", "setting": "[6]", "result": 1},
      {"measurement": "intravitreal (vitreous) haemorrhage", "setting": "[6]; listed as FA", "result": "Two eyes at 4 mg/0.1 ml experienced intravitreal haemorrhage"},
      {"measurement": "ERG change", "setting": "[6]", "result": "one eye injected with 4 mg/0.1 ml exhibited decreases in ERG output"},
      {"measurement": "ERG change", "setting": "[6]; listed as FA", "result": "reduced ERG"},
      {"measurement": "signs of retinal toxicity on slit-lamp examination, indirect ophthalmoscopy, or light microscopy", "setting": "[6]; rabbit, in vivo", "result": "no signs of retinal toxicity"},
      {"measurement": "tolerability in animal toxicology studies", "setting": "[6]; rabbit, in vivo", "result": "well-tolerated"},
      {"measurement": "inflammation in anterior or posterior segment (slit lamp biomicroscopy, indirect ophthalmoscopy)", "setting": "[6]; up to 40 days of observations, all treatment groups", "result": "did not show any evidence of significant inflammation"}
    ]}
  ]
}
